Earlier results on one compound are cited in patent publication US12648940B2, “Bupivacaine liquid formulations” (FRESENIUS KABI AUSTRIA GMBH, priority 2023, dated 2026).

Structures are written as SMILES.

For the compound `CCCCN1CCCCC1C(=O)Nc1c(C)cccc1C` (centres unmarked) [Bupivacaine, 1-butyl-N-(2,6-dimethylphenyl)piperidine-2-carboxamide], the pKa entry is “approximately 8.1”. Moreover, the “pKa of the amine of the piperidine group” value (at 25° C.) was ~8.1.
